# Laboratory results published in patent EP0251013A2, “Fluorine containing o-aminophenols” (BAYER AG, priority 1986, dated 1988).
# Assays:
# Type in all cases: in vivo
# Sinapis = assay: Post-emergence test, greenhouse; conditions: Sinapis, 0,25 kg/ha, rated after three weeks vs untreated control
# Excerpt: (§1) Lösungsmittel: 5 Gewichtsteile Aceton Emulgator: 1 Gewichtsteil Alkylarylpolyglykolether
# (§2) Zur Herstellung einer zweckmäßigen Wirkstoffzubereitung vermischte man 1 Gewichtsteil Wirkstoff mit der angegebenen Menge Lösungsmittel, gab die angegebene Menge Emulgator zu und verdünnte das Konzentrat mit Wasser auf die gewünschte Konzentration.
# (§3) Mit der Wirkstoffzubereitung spritzte man Testpflanzen, welche eine Höhe von 5 - 15 cm hatten so, daß die jeweils gewünschten Wirkstoffmengen pro Flächeneinheit ausgebracht wurden. Die Konzentration der Spritzbrühe wurde so gewählt, daß in 2000 1 Wasser/ha die jeweils gewünschten Wirkstoffmengen ausgebracht wurden. Nach drei Wochen wurde der Schädigungsgrad der Pflanzen bonitiert in % Schädigung im Vergleich zur Entwicklung der unbehandelten Kontrolle.
# (§4) Es bedeuten: • 0 % = keine Wirkung (wie unbehandelte Kontrolle) • 100 % = totale Vernichtung
# Poa = assay: Post-emergence test, greenhouse; conditions: Poa, 0,25 kg/ha, rated after three weeks vs untreated control
# Excerpt: as §1, §2, §3, §4
# Baumwolle [1] = assay: Post-emergence test, greenhouse; conditions: Baumwolle, 0,25 kg/ha, sprayed on plants 5 - 15 cm high, rated after three weeks vs untreated control (0 % = no effect, 100 % = total destruction)
# Excerpt: as §1, §2, §3, §4
# Chenopodium [2] = assay: Post-emergence test, greenhouse; conditions: Chenopodium, 0,25 kg/ha, rated after three weeks vs untreated control
# Excerpt: as §1, §2, §3, §4
# Solanum = assay: Post-emergence test, greenhouse; conditions: Solanum, 0,25 kg/ha, rated after three weeks vs untreated control
# Excerpt: as §1, §2, §3, §4
# Echinochloa = assay: Post-emergence test, greenhouse; conditions: Echinochloa, 0,25 kg/ha, rated after three weeks vs untreated control
# Excerpt: as §1, §2, §3, §4
# Mais = assay: Post-emergence test, greenhouse; conditions: Mais, 0,25 kg/ha, rated after three weeks vs untreated control
# Excerpt: as §1, §2, §3, §4
# Stellaria = assay: Pre-emergence test, greenhouse; conditions: Stellaria, 1,0 kg/ha, rated after three weeks vs untreated control
# Excerpt: as §1, §2
# (§5) Samen der Testpflanzen wurden in normalen Boden ausgesät und nach 24 Stunden mit der Wirkstoffzubereitung begossen. Dabei wurde die Wassermenge pro Flächeneinheit zweckmäßigerweise konstant gehalten. Die Wirkstoffkonzentration in der Zubereitung spielte keine Rolle, entscheidend war nur die Aufwandmenge des Wirkstoffs pro Flächeneinheit. Nach drei Wochen wurde der Schädigungsgrad der Pflanzen bonitiert in % Schädigung im Vergleich zur Entwicklung der unbehandelten Kontrolle. Es bedeuten: • 0 % = keine Wirkung (wie unbehandelte Kontrolle) • 100 % = totale Vernichtung
# Datura = assay: Pre-emergence test, greenhouse; conditions: Datura, 1,0 kg/ha, rated after three weeks vs untreated control
# Excerpt: as §1, §2, §5
# Matricaria = assay: Pre-emergence test, greenhouse; conditions: Matricaria, 1,0 kg/ha, rated after three weeks vs untreated control
# Excerpt: as §1, §2, §5
# Weizen = assay: Pre-emergence test, greenhouse; conditions: Weizen, 1,0 kg/ha, rated after three weeks vs untreated control
# Excerpt: as §1, §2, §5
# Baumwolle [3] = assay: Pre-emergence test, greenhouse; conditions: Baumwolle, 1,0 kg/ha, rated after three weeks vs untreated control (0 % = no effect, 100 % = total destruction)
# Excerpt: as §1, §2, §5
# Chenopodium [4] = assay: Pre-emergence test, greenhouse; conditions: Chenopodium, 1,0 kg/ha, rated after three weeks vs untreated control
# Excerpt: as §1, §2, §5
# Cynodon = assay: Pre-emergence test, greenhouse; conditions: Cynodon, 1,0 kg/ha, rated after three weeks vs untreated control
# Excerpt: as §1, §2, §5
# Portulak = assay: Pre-emergence test, greenhouse; conditions: Portulak, 1,0 kg/ha, rated after three weeks vs untreated control
# Excerpt: as §1, §2, §5
structure (smiles),measurement,setting,value
"FC(Cl)(Cl)Sn1c(C(F)(F)F)nc2cc(C(F)(F)F)c(Cl)cc21 [Beispiel 13, 1-Dichlorfluormethylsulfenyl-2,5-bis(trifluormethyl)-6-chlorbenzimidazol]",Schädigungsgrad der Pflanzen in % Schädigung,Sinapis,100%
same,Schädigungsgrad der Pflanzen in % Schädigung,Poa,100%
same,Schädigungsgrad der Pflanzen in % Schädigung,Baumwolle [1],20%
same,Schädigungsgrad der Pflanzen in % Schädigung,Chenopodium [2],100%
same,Schädigungsgrad der Pflanzen in % Schädigung,Solanum,100%
same,Schädigungsgrad der Pflanzen in % Schädigung,Echinochloa,80%
same,Schädigungsgrad der Pflanzen in % Schädigung,Mais,50%
same,Schädigungsgrad der Pflanzen in % Schädigung,Stellaria,80%
same,Schädigungsgrad der Pflanzen in % Schädigung,Datura,80%
same,Schädigungsgrad der Pflanzen in % Schädigung,Matricaria,80%
same,Schädigungsgrad der Pflanzen in % Schädigung,Weizen,0%
same,Schädigungsgrad der Pflanzen in % Schädigung,Baumwolle [3],0%
same,Schädigungsgrad der Pflanzen in % Schädigung,Chenopodium [4],100%
same,Schädigungsgrad der Pflanzen in % Schädigung,Cynodon,100%
same,Schädigungsgrad der Pflanzen in % Schädigung,Portulak,100%
